Values quoted from earlier work in patent US20250179582A1, “METHODS FOR TREATING CANCER PATIENTS WITH HOMOLOGOUS RECOMBINATION DEFICIENCY BASED ON TEMPLATED INSERTIONS” (Memorial Sloan-Kettering Cancer Center, priority 2022, published 2025).
Like-named read-outs stand apart in the source and are kept apart here.

System: relapsed high-grade serous ovarian/endometrioid/primary peritoneal/or fallopian carcinoma
Settings: rucaparib versus placebo

## CNCc1ccc(-c2[nH]c3cc(F)cc4c3c2CCNC4=O)cc1 [rucaparib]
Germline or somatic mutated BRCA1/2 cohort, patients with at least a partial response to platinum therapy
  progression-free survival hazard ratio (HR): 0.23
Patients with high genomic LOH
  progression-free survival hazard ratio (HR): 0.44
Patients with low genomic LOH
  progression-free survival hazard ratio (HR): 0.58
